One assay has as its target T1, CDK9-CYCLINT1 (Homo sapiens, UniProt P50750).
T1 construct: purchased Carna
Nature of the assay: CDK inhibition assay (microfluidic LabChip, IC50 format). In kind it is biochemical.

A further assay deals with T2, CDK6-CYCLIND3 (Homo sapiens, UniProt Q00534).
T2 construct: purchased Carna
The assay is described as above. In kind it is biochemical.

A further assay addresses CDK4-CYCLIND1 (Homo sapiens, UniProt P11802). Described as above.
The next assay addresses T3, CDK2-CYCLINE (Homo sapiens, UniProt P24941).
T3 construct: purchased Millipore
The assay is described as above. In kind it is biochemical. As to conditions: Table 3; purified enantiomers; read-out: CDK2-E (E1/E2).

Another assay addresses T4, CDK2-CYCLINA (Homo sapiens, UniProt P24941).
T4 construct: purchased Millipore
Described as above. Type of assay: biochemical.

Another assay relates to all cell lines tested. The assay can be described thus: 2D cell proliferation assay, geometric mean over the cell line panel. As to conditions: Table 5 lower part; geometric mean over the 8-line panel; read-out: Geomean abs. IC50 value. Type of assay: cell-based. Here is the method:
(§1) Viability of the cells was analyzed by using the CellTiter-Blue® Cell Viability Assay (Promega), and was performed according to manufacturer's instructions. Briefly, cells were harvested from exponential phase cultures (Chapter 6.6), counted and plated in 96-well flat-bottom microtiter plates at a cell density of 4,000-60,000 cells/well in a volume of 140 μl per well. After a 24 hours recovery period, 10 μL cell culture medium (six control wells/plate) or culture medium with test compound were added (Chapter 6.2). The compounds were applied at five concentrations in full-log increments up to 100 μM in duplicate. Cultures were incubated at 37° C. and 5% CO2 in a humidified atmosphere for another three days. After three days of treatment, 20 μl/well CellTiter-Blue® reagent was added. Following incubation with CellTiter-Blue® reagent for up to four hours, fluorescence (FU) was measured by using the Enspire Multimode Plate Reader (excitation λ=570 nm, emission λ=600 nm). For calculations, the mean values of duplicate/sextuplicate (untreated control) data were used.
(§2) IC values are reported as relative IC50 values and absolute IC50 and IC70 values. […] The absolute IC70 value gives the concentration of the test compound that achieves T/C=30%. The relative IC50 value is the concentration of test compound that gives a response halfway between the top and bottom plateau of the sigmoidal concentration-response curve (inflection point of the curve). Calculation was done by 4parameter non-linear curve fit (Oncotest Data Warehouse Software).
(§3) If an IC50 or IC70 value could not be determined within the examined dose range (because a compound was either too active or lacked activity), the lowest or highest concentration studied was used for calculation of the geometric mean value.
The overall potency of a compound was determined by the geometric mean IC50/IC70 values of all individual IC50/IC70 values. In the heatmap representation of IC50 and IC70 values, the distribution of the IC50 or IC70 values obtained for a test compound in the individual cell lines is given in relation to the geometric mean IC50 or IC70 value, obtained over all PDX models tested. The individual IC values range from 1/32-fold geometric mean IC (corresponding to very potent compound activity or high tumor sensitivity) to 32-fold geometric mean IC (corresponding to lack of compound activity or tumor resistance). The heatmap presentation, therefore, represents an antiproliferative “fingerprint” profile of a test compound.

The subject of a further assay is MAXFTN ZR-75-1 (ER+). Nature of the assay: 2D cell proliferation assay (CellTiter-Blue). In kind it is cell-based. As to conditions: Homo sapiens, 72 h, three days of treatment, read-out: abs. IC50. Here is the method:
as §1
(§4) An assay was considered fully evaluable if the following quality control criteria were fulfilled: • control/background ratio>3.0-Z′-factor calculated within the assay plate>0.5 [7]—coefficient of variation in the growth control wells <30%
(§5) Drug effects were expressed in terms of the percentage of the fluorescence signal, obtained by comparison of the mean signal in the treated wells with the mean signal of the untreated controls (expressed by the test-versus-control value, T/C-value [%]):
as §2, §3

For a further assay, the system named is MAXFLB MCF7 (ER+). The assay can be described thus: 2D cell proliferation assay (CellTiter-Blue). Type of assay: cell-based. Particulars: Homo sapiens, 72 h, three days of treatment, read-out: abs. IC50. Here is the method:
as §1, §4, §5, §2, §3

The test system of the next assay is MEXF WM-266-4. The assay can be described thus: 2D cell proliferation assay (CellTiter-Blue). In kind it is cell-based. Particulars: Homo sapiens, 72 h, three days of treatment, read-out: abs. IC50. As for the experimental part:
as §1, §4, §5, §2, §3

The subject of another assay is LXFL NCl-H1299. The assay can be described thus: 2D cell proliferation assay (CellTiter-Blue). In kind it is cell-based. As to conditions: 72 h, three days of treatment, read-out: abs. IC50. Here is the method:
as §1, §4, §5, §2, §3

For another assay, the system named is LXFA A549. Nature of the assay: 2D cell proliferation assay (CellTiter-Blue). In kind it is cell-based. As to conditions: Homo sapiens, 72 h, three days of treatment, read-out: abs. IC50. Here is the method:
as §1, §4, §5, §2, §3

A further assay deals with LEXFAM MV4-11. The assay can be described thus: 2D cell proliferation assay (CellTiter-Blue). Type of assay: cell-based. Particulars: Homo sapiens, 72 h, three days of treatment, read-out: abs. IC50. Here is the method:
as §1, §4, §5, §2, §3

The next assay has as its target CDK7 CyclinH (Homo sapiens, UniProt P50613). Nature of the assay: CDK inhibition assay (microfluidic LabChip, IC50 format). Type of assay: biochemical. Particulars: Table 4a.
Setting [1] is: Table 3, purified enantiomers, read-out: CDK9-T (E1/E2).
[2] abbreviates: Table 3, purified enantiomers, read-out: CDK6 (E1/E2).
[3] abbreviates: CDK4 (E1/E2), Table 3, purified enantiomers.
[4] abbreviates: Table 3, purified enantiomers, read-out: CDK2-A (E1/E2).
Where [5] appears, read: Table 4a, read-out: CDK9 CyclinT1 IC50.
The mark [6] stands for this setting: Table 4a, read-out: CDK6 CyclinD3 IC50.
Where [7] appears, read: Table 4a, read-out: CDK2 CyclinA IC50.

10 compounds from patent US20230048132A1, “CYCLIN-DEPENDENT KINASE INHIBITORS” (SPV THERAPEUTICS INC., priority 2018, published 2023) can be followed below.

The structures appear in SMILES notation. Read-outs that look alike come from different tables or passages of the source.

T2 sequence (Q00534 whole entry): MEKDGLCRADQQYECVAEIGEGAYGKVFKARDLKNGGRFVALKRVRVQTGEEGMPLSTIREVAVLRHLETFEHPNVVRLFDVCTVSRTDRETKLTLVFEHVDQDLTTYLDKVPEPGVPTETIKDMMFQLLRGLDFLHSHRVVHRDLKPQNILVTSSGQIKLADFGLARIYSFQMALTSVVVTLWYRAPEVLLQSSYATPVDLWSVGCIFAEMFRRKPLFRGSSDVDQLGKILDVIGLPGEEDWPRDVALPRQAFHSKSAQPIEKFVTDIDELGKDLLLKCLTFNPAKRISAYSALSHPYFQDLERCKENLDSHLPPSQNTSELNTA
T2 sequence (P30281 whole entry partner): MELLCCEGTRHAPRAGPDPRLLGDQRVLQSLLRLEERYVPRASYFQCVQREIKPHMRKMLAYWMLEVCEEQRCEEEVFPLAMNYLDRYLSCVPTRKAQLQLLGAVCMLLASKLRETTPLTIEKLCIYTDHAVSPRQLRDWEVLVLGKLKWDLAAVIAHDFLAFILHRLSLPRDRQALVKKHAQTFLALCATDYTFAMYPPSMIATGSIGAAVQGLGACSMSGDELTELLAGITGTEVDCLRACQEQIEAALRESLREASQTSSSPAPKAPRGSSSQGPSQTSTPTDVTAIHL
Chain of CDK4-CYCLIND1 (P11802 whole entry): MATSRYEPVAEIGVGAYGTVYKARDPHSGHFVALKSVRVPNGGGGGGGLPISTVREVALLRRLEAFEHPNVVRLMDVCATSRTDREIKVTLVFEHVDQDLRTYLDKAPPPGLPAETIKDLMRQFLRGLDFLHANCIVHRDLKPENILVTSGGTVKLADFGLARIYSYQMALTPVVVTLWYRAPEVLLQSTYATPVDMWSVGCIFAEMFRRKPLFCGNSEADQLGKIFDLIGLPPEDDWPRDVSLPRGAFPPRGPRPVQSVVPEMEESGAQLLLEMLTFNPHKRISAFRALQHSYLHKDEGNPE
Chain of CDK4-CYCLIND1 (P24385 whole entry partner): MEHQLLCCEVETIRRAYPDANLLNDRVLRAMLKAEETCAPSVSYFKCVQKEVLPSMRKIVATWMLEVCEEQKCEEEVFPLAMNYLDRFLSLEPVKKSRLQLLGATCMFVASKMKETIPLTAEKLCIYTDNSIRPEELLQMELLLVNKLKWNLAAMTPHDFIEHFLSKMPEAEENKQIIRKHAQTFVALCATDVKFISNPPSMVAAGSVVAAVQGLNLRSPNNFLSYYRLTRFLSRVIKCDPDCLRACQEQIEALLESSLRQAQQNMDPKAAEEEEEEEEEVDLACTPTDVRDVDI
T1 sequence (P50750 whole entry): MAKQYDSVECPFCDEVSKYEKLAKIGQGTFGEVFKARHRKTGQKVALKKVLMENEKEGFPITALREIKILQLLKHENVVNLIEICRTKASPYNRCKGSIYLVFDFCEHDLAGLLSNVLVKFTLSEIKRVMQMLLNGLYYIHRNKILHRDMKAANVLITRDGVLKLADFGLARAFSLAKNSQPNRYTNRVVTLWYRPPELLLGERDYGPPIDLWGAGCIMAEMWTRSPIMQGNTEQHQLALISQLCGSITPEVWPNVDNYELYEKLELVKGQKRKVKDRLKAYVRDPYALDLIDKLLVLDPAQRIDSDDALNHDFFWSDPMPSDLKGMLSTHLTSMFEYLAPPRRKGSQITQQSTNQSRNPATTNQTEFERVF
T1 sequence (O60563 whole entry partner): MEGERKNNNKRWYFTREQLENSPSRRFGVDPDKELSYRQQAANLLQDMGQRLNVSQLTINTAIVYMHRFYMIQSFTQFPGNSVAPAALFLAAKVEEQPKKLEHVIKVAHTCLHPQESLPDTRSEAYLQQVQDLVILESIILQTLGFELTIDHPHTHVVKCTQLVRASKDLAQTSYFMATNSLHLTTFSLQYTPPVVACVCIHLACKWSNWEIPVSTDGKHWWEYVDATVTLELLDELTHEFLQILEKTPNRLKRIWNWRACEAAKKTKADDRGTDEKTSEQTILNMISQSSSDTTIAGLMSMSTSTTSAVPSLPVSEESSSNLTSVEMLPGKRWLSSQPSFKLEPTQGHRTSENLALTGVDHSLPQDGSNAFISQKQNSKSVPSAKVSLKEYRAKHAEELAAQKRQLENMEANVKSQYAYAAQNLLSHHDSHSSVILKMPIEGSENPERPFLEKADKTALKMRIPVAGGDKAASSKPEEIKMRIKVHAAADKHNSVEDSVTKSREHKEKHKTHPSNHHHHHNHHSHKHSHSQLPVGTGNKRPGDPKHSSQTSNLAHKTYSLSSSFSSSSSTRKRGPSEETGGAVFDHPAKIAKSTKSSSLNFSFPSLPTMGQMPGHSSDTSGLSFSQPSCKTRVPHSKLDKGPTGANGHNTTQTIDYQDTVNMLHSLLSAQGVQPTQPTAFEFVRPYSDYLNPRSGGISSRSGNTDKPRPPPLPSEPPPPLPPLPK
Chain of CDK7 CyclinH (P50613 whole entry): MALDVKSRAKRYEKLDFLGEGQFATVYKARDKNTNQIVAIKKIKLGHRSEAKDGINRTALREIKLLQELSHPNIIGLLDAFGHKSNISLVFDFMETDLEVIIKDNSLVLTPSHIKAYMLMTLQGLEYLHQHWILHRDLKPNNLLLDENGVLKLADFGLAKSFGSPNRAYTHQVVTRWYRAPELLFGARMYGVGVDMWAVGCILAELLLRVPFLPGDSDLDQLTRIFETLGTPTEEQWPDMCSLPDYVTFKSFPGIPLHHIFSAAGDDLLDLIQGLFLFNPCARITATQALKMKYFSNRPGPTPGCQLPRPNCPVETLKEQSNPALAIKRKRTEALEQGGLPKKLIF
Chain of CDK7 CyclinH (P51946 whole entry partner): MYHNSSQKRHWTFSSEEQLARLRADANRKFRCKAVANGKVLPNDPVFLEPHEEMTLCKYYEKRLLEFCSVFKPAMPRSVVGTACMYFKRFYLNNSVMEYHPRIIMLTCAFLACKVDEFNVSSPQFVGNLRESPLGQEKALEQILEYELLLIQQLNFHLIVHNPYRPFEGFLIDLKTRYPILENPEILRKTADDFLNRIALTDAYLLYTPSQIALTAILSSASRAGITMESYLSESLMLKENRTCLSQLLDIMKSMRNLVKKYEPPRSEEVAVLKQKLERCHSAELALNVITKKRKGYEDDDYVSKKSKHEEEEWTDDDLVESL
Chain of CDK7 CyclinH (P51948 whole entry partner): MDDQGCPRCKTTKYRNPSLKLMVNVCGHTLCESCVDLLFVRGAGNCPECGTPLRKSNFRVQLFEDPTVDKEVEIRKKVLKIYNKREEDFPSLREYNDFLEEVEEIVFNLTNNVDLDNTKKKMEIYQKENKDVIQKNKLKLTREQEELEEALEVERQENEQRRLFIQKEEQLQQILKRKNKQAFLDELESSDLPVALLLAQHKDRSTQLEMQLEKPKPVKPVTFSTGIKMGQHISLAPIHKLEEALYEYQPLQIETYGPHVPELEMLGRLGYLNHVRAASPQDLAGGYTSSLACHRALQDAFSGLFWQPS
Procedure for CDK4-CYCLIND1: Inhibition assays were performed using microfluidic LabChip 300 Drug Discovery System from Caliper Life Sciences. […] The assay has a total volume of 10 μL consisting of 5 μL of enzyme and buffer and 5 μL of substrate and buffer. The test compounds were diluted in 100% dimethylsulfoxide (DMSO) using 3-fold dilution steps. […] Compounds were tested in a single well for each dilution and the final concentration of DMSO was maintained at 1%.
The assay buffer contained 100 mM HEPES, pH 7.5, 0.01% Triton X-100, 0.1% bovine serum albumin (BSA), 5 mM MgCl2; 1 mM dithiothreitol (DTT), 10 μM sodium orthovanadate, and 10 μM β-glycerophosphate.
The assay was conducted by adding 5 μL of enzyme, adenosine triphosphate (ATP) and buffer to an assay plate. A 100 nL aliquot of the diluted compounds were added to the plate. The assay was initiated by the addition of 5 μL of phosphoenolpyruvate substrate (PEP) in buffer. […] The reaction was terminated by the addition of EDTA. The plates were analyzed using a Caliper LabChip 3000.
Additional inhibition assays were performed as described above.
The assays were conducted as described above for the racemates.

As for `O=C1NCC[C@]12Cc1cnc(Nc3ccc(N4CCNCC4)c(F)c3)nc1N(C1CCCC1)C2=O` [Example D49, (R)-8-cyclopentyl-2-((3-fluoro-4-(piperazin-1-yl)phenyl)amino)-5,8-dihydro-7H-spiro[pyrido[2,3-d]pyrimidine-6,3′-pyrrolidine]-2′,7-dione], the IC50 on CDK9-CYCLINT1 (setting [1]) came out at 1240 nM; at CDK6-CYCLIND3 (setting [2]), 360 nM; against CDK4-CYCLIND1 (setting [3]) it was 136 nM; at CDK2-CYCLINE, 5660 nM; on CDK2-CYCLINA (setting [4]), 3410 nM.

Regarding `CN1CCN(c2ccc(Nc3ncc4c(n3)N(C3CCCC3)C(=O)[C@@]3(CCNC3=O)C4)cc2F)CC1` [Example D51, (R)-8-cyclopentyl-2-((3-fluoro-4-(4-methylpiperazin-1-yl)phenyl)amino)-5,8-dihydro-7H-spiro[pyrido[2,3-d]pyrimidine-6,3′-pyrrolidine]-2′,7-dione], the IC50 at CDK9-CYCLINT1 (setting [1]) was 1150 nM; on CDK6-CYCLIND3 (setting [2]), 444 nM; at CDK4-CYCLIND1 (setting [3]), 211 nM; at CDK2-CYCLINE, 11500 nM; on CDK2-CYCLINA (setting [4]), 5940 nM.

As for `CC(C)N1CCN(c2ccc(Nc3ncc4c(n3)N(C3CCCC3)C(=O)[C@@]3(CCNC3=O)C4)cc2F)CC1` [Example D53, (R)-8-cyclopentyl-2-((3-fluoro-4-(4-isopropylpiperazin-1-yl)phenyl)amino) -5,8-dihydro-7H-spiro[pyrido[2,3-d]pyrimidine-6,3′-pyrrolidine]-2′,7-dione], the IC50 on CDK6-CYCLIND3 (setting [2]) was found to be 384 nM; against CDK4-CYCLIND1 (setting [3]), 178 nM; on CDK2-CYCLINE, 12100 nM; at CDK2-CYCLINA (setting [4]), 9670 nM.

Turning to `CC(C)N1CCN(c2ccc(Nc3ncc4c(n3)N(C3CCCC3)C(=O)[C@]3(CCNC3=O)C4)cc2F)CC1` [Example D54, (S)-8-cyclopentyl-2-((3-fluoro-4-(4-isopropylpiperazin-1-yl)phenyl)amino)-5,8-dihydro-7H-spiro[pyrido[2,3-d]pyrimidine-6,3′-pyrrolidine]-2′,7-dione], the IC50 worked out at 1.65 nM at CDK6-CYCLIND3 (setting [2]); 352 nM with all cell lines tested; 0.822 nM against CDK4-CYCLIND1 (setting [3]); 106 nM on CDK2-CYCLINE; 45.6 nM on CDK2-CYCLINA (setting [4]); 10300 nM with MAXFTN ZR-75-1 (ER+). Also, the IC50 in the assay with MAXFLB MCF7 (ER+) stood at 188 nM; with MEXF WM-266-4 it was 331 nM; with LXFL NCl-H1299, 212 nM; in the assay with LXFA A549 it was 1400 nM; in the assay on LEXFAM MV4-11, 10 nM.

On to `O=C1NCC[C@]12Cc1cnc(Nc3ccc(N4CCNCC4)cc3)nc1N(C1CCCC1)C2=O` [Example D55, (R)-8-cyclopentyl-2-((4-(piperazin-1-yl)phenyl)amino)-5,8-dihydro-7H-spiro[pyrido[2,3-d]pyrimidine-6,3′-pyrrolidine]-2′,7-dione], for which the IC50 on CDK9-CYCLINT1 (setting [1]) is 1800 nM; on CDK6-CYCLIND3 (setting [2]), 519 nM; at CDK4-CYCLIND1 (setting [3]), 251 nM; on CDK2-CYCLINE, 8880 nM; on CDK2-CYCLINA (setting [4]), 6000 nM.

In the case of `O=C1NCC[C@@]12Cc1cnc(Nc3ccc(N4CCNCC4)cc3)nc1N(C1CCCC1)C2=O` [Example D56, (S)-8-cyclopentyl-2-((4-(piperazin-1-yl)phenyl)amino)-5,8-dihydro-7H-spiro[pyrido[2,3-d]pyrimidine-6,3′-pyrrolidine]-2′,7-dione], the IC50 on CDK9-CYCLINT1 (setting [1]) worked out at 11.1 nM; on CDK6-CYCLIND3 (setting [2]) it was 2.67 nM; against CDK4-CYCLIND1 (setting [3]), 1.4 nM; at CDK2-CYCLINE, 104 nM; on CDK2-CYCLINA (setting [4]), 48.2 nM.

For `O=C1NCC[C@]12Cc1cnc(Nc3ccc(N4CCNCC4)cn3)nc1N(C1CCCC1)C2=O` [Example D57, (R)-8-cyclopentyl-2-((5-(piperazin-1-yl)pyridin-2-yl)amino)-5,8-dihydro-7H-spiro[pyrido[2,3-d]pyrimidine-6,3′-pyrrolidine]-2′,7-dione], the IC50 was more than 100000 nM at CDK9-CYCLINT1 (setting [1]); 2010 nM on CDK6-CYCLIND3 (setting [2]); 1050 nM against CDK4-CYCLIND1 (setting [3]); more than 100000 nM at CDK2-CYCLINE; more than 100000 nM on CDK2-CYCLINA (setting [4]).

For `O=C1NCC[C@@]12Cc1cnc(Nc3ccc(N4CCNCC4)cn3)nc1N(C1CCCC1)C2=O` [Example D58, (S)-8-cyclopentyl-2-((5-(piperazin-1-yl)pyridin-2-yl)amino)-5,8-dihydro-7H-spiro[pyrido[2,3-d]pyrimidine-6,3′-pyrrolidine]-2′,7-dione], the IC50 worked out at 198 nM on CDK9-CYCLINT1 (setting [1]); 3.26 nM at CDK6-CYCLIND3 (setting [2]); 2.96 nM at CDK4-CYCLIND1 (setting [3]); 4240 nM at CDK2-CYCLINE; 3120 nM at CDK2-CYCLINA (setting [4]).

`CN1CCN(c2ccc(Nc3ncc4c(n3)N(C3CCCC3)C(=O)[C@]3(CCNC3=O)C4)cc2)CC1` [Example D144, (S)-8-cyclopentyl-2-((4-(4-methylpiperazin-1-yl)phenyl)amino)-5,8-dihydro-7H-spiro[pyrido[2,3-d]pyrimidine-6,3′-pyrrolidine]-2′,7-dione]: the IC50 was determined as 229 nM on CDK7 CyclinH; 4.84 nM on CDK9-CYCLINT1 (setting [5]); 1.54 nM on CDK6-CYCLIND3 (setting [6]); 475 nM in the assay with all cell lines tested; 29.2 nM on CDK2-CYCLINA (setting [7]); 100000 nM in the assay on MAXFTN ZR-75-1 (ER+). In addition, the IC50 with MAXFLB MCF7 (ER+) was found to be 114 nM; with MEXF WM-266-4 it was 358 nM; in the assay with LXFL NCl-H1299, 219 nM; in the assay on LXFA A549, 1290 nM; with LEXFAM MV4-11, 10 nM.

Turning to `Cc1cc(Nc2ncc3c(n2)N(C2CCCC2)C(=O)[C@]2(CCNC2=O)C3)ccc1N1CCN(C(C)C)CC1` [Example D158, (S)-8-cyclopentyl-2-((4-(4-isopropylpiperazin-1-yl)-3-methylphenyl)amino)-5,8-dihydro-7H-spiro[pyrido[2,3-d]pyrimidine-6,3′-pyrrolidine]-2′,7-dione], the IC50 is 120 nM against CDK7 CyclinH; 5.25 nM at CDK9-CYCLINT1 (setting [5]); 2.17 nM at CDK6-CYCLIND3 (setting [6]); 301 nM in the assay with all cell lines tested; 1.04 nM on CDK4-CYCLIND1 (CDK4 CyclinD1 IC50, Table 4a, a second value in parentheses for some compounds); 22.2 nM on CDK2-CYCLINA (setting [7]). Further, the IC50 with MAXFTN ZR-75-1 (ER+) came to 5520 nM; with MAXFLB MCF7 (ER+), 55 nM; in the assay with MEXF WM-266-4 it was 451 nM; in the assay with LXFL NCl-H1299 it was 257 nM; in the assay on LXFA A549 it was 554 nM; in the assay on LEXFAM MV4-11, 38 nM.
